In paper PMC8185074, “Anchor extension: a structure-guided approach to design cyclic peptides targeting enzyme active sites” (Nature Communications, 2021) one finds IC50 data, which are given here for three compounds.

Like-named read-outs stand apart in the source and are kept apart here. Peptide text beside a SMILES is read from it.

Test [1] deals with HDAC6. The conditions noted are these: cited from earlier work.
Test [2] has as its target T1, HDAC1 (Homo sapiens, UniProt Q13547).
T1 construct: purchased Reaction Biology Corporation (assay run by the CRO)
The conditions noted are these: Supp. Table 1; cited from earlier work.

In test [3] the target is T2, HDAC6 (Homo sapiens, UniProt Q9UBN7).
T2 construct: purchased Reaction Biology Corporation (assay run by the CRO)
T2 sequence (Q9UBN7 1-1215): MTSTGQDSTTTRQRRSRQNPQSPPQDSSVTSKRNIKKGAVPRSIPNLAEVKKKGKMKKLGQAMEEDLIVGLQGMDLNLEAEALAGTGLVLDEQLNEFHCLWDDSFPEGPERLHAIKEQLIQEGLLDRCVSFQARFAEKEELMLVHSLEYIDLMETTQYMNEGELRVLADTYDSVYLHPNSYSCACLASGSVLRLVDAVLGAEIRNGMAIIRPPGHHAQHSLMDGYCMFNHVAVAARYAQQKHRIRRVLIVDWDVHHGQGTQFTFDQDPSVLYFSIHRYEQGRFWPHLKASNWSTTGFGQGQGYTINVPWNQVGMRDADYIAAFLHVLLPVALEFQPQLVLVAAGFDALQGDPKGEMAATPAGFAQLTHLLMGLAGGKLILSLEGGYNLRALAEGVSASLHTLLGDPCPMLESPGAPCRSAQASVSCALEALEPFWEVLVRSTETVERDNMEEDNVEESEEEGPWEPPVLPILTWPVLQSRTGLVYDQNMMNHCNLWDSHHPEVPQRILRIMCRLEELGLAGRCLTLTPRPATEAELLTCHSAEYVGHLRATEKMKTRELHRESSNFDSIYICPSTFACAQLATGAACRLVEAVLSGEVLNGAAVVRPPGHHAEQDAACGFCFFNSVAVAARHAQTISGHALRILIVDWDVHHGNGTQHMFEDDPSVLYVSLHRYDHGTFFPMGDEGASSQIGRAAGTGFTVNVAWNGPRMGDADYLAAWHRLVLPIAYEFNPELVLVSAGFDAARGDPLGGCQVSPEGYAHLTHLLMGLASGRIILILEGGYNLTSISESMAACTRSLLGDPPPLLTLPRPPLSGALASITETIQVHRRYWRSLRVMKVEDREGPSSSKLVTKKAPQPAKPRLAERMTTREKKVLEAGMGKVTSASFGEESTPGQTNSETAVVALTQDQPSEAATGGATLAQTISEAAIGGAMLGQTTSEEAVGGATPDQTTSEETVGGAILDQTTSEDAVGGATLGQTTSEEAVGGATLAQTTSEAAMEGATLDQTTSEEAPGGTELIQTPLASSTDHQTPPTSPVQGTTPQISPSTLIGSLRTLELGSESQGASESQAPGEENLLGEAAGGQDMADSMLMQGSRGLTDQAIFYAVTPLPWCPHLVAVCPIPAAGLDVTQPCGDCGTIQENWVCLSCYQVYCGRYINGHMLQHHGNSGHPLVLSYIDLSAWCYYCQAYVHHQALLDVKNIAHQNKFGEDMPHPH
In words: HDAC6 inhibition, full IC50 measurement (Reaction Biology; fluorogenic p53 peptide RHKK(Ac)AMC). Conditions: figure legends, Supp. Tables 1 and 8; read-out: HDAC6 IC50. Format: biochemical. In short, it runs like this:
(§1)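 Reaction: enzyme plus acoustically dispensed peptide inhibitor, 50 μM RHKK(Ac)AMC substrate, pH 8.0 Tris buffer with BSA and 1% DMSO, 1 h, 30 °C. Duplicates averaged.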

In the next test the target is T3, HDAC3 (Homo sapiens, UniProt O15379).
T3 construct: purchased Reaction Biology Corporation (assay run by the CRO)
In words: HDAC3 inhibition, full IC50 measurement (Reaction Biology; fluorogenic p53 peptide RHKK(Ac)AMC). The format is biochemical. Conditions: Supp. Table 1. The method, then: (§2) The assay was performed using 50 μM fluorogenic peptide from p53 residues 379-382 [RHKK(Ac)AMC] in a base reaction buffer of 50 mM Tris-HCl at pH 8.0, 137 mM NaCl, 2.7 mM KCl, 1 mM MgCl2, and freshly added 1 mg/ml BSA and 1% DMSO. Peptides were first dissolved in DMSO and then added to the reaction mixture with the enzyme using acoustic technique, enough to reach the desired concentration for that assay point. Peptide concentrations were calculated based on mass of lyophilized peptide and its molecular weight. The substrate was then added and incubated for 1 hour at 30 °C in a sealed container. After the incubation, developer was added to stop the reaction and develop color. Kinetic measurements were then performed for 20 min with Envision with 5 min intervals (Ex/Em = 360/460 nm). The endpoint after plateau was taken for IC50 measurement.
(§3) In cases where duplicate measures are used, average data is reported in the main text or Supplementary Tables.

For test [4], the target named is T1, HDAC1. In words: HDAC1 inhibition, full IC50 measurement (Reaction Biology; fluorogenic p53 peptide RHKK(Ac)AMC). Format: biochemical. Conditions: Supp. Table 1. The method, then:
as §2, §3

Test [5] has as its target T4, HDAC2 (Homo sapiens, UniProt Q92769).
T4 construct: purchased Reaction Biology Corporation (assay run by the CRO)
In words: Initial HDAC2 IC50 estimate (BPS Biosciences HDAC fluorogenic assay kit). Format: biochemical. The conditions noted are these: Supplementary Dataset 2; read-out: HDAC2 activity (initial activity). The protocol:
Initial IC50 values were estimated using HDAC fluorogenic assay kits from BPS Biosciences (HDAC2, HDAC4, and HDAC6) following the protocol described in the kit. All the measures were performed in duplicates or triplicates. These measurements were done either on full range of concentrations (1:10 dilution from 1 µM to 100 pM) or on two concentrations only (20 nM and 200 nM) as an estimate of the range. […] Source Data are provided as a Source Data file.

The next test has as its target T5, HDAC8 (Homo sapiens, UniProt Q9BY41).
T5 construct: purchased Reaction Biology Corporation (assay run by the CRO)
T5 sequence (Q9BY41 1-377): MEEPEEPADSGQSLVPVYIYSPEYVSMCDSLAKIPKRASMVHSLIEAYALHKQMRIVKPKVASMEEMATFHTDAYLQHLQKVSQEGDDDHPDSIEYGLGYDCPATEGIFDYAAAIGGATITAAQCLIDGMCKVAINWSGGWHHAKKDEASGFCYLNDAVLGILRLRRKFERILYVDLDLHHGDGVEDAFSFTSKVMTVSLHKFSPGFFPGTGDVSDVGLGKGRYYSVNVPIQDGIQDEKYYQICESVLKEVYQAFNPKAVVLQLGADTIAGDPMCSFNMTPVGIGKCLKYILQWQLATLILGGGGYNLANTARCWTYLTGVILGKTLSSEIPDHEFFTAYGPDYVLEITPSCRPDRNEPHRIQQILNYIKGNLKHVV
In words: HDAC8 inhibition, full IC50 measurement (Reaction Biology; fluorogenic p53 peptide RHKK(Ac)AMC). Format: biochemical. The conditions noted are these: Supp. Table 1. The protocol:
as §2, §3

The target in test [6] is T4, HDAC2. In words: HDAC2 inhibition, full IC50 measurement (Reaction Biology; fluorogenic p53 peptide RHKK(Ac)AMC). The format is biochemical. The conditions noted are these: figure legends, Supp. Table 1; read-out: HDAC2 IC50. In outline:
as §1

A further test has as its target T6, HDAC4 (Homo sapiens, UniProt P56524).
T6 construct: purchased BPS Biosciences
The conditions noted are these: Supp. Table 1; cited from earlier work.

T4 sequence (Q92769 whole entry): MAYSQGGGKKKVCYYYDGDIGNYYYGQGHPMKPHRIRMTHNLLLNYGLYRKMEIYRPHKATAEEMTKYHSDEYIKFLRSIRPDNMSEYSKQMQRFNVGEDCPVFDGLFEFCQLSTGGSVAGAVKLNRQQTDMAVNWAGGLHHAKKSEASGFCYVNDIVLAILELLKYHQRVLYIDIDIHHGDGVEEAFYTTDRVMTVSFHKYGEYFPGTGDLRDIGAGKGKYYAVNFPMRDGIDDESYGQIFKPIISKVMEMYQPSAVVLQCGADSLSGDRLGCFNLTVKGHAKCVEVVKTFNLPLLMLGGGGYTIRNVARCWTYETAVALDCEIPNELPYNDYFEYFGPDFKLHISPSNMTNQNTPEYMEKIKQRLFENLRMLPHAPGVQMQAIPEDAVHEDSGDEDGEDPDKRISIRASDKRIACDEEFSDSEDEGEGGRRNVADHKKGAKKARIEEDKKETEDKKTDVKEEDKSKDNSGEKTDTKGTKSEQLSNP
T1 sequence (Q13547 whole entry): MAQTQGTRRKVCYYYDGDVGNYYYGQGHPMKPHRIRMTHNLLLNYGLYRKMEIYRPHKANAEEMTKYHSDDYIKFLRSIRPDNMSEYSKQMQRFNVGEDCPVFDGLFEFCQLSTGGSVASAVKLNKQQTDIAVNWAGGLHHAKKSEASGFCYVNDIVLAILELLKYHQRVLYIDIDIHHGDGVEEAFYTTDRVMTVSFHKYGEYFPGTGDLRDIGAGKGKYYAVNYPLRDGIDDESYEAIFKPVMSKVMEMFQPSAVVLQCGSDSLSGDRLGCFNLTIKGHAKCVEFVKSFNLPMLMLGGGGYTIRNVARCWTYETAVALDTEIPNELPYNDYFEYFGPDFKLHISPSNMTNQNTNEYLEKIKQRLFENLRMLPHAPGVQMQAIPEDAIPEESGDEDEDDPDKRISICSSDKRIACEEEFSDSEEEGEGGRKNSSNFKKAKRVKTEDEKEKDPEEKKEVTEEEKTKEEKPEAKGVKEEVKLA
T6 sequence (P56524 whole entry): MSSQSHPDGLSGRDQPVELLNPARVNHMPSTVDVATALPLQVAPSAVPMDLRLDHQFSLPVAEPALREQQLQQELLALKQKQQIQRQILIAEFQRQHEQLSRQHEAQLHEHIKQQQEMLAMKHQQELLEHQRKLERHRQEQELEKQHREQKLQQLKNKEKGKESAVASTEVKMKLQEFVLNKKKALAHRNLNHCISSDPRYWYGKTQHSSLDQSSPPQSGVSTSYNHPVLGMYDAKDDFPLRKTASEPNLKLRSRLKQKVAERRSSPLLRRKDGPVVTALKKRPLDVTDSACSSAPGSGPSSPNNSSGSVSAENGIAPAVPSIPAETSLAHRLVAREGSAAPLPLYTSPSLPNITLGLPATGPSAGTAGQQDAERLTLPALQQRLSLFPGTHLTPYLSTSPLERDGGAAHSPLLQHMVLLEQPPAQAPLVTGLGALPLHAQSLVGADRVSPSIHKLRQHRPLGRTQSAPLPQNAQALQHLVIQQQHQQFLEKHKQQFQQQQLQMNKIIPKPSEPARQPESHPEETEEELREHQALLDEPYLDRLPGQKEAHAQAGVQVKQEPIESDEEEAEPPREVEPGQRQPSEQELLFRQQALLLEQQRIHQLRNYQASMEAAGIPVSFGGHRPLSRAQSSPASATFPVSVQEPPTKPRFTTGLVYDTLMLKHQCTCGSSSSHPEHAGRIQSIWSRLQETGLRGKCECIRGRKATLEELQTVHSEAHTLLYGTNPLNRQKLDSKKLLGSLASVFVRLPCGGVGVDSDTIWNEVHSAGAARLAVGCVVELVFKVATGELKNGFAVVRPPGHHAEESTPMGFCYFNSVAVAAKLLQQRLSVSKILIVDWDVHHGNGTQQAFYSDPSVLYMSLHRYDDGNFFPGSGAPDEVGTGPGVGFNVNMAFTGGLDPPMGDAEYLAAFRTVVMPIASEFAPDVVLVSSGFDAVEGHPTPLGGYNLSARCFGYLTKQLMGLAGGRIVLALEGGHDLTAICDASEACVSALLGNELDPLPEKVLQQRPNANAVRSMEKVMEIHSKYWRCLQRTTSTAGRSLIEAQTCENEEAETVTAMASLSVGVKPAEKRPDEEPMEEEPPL
T3 sequence (O15379 whole entry): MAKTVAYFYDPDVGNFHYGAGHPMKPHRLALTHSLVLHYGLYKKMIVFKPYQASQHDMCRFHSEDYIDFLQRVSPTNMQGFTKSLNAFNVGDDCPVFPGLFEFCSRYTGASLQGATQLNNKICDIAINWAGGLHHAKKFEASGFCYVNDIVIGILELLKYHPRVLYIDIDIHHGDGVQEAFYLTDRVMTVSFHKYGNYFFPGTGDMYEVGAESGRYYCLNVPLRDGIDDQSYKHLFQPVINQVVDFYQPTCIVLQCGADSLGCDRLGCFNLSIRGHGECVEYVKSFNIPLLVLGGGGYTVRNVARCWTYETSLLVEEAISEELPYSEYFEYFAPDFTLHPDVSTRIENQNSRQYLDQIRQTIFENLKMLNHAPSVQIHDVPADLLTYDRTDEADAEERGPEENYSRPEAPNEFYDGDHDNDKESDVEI
T3 sequence (Q9Y618 395-489 partner limits assumed): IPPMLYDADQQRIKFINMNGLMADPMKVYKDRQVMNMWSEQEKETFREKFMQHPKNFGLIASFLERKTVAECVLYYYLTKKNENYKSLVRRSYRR

On to Cyl-2, for which the results for the IC50 with HDAC6 [1] (Supp. Table 1) and on HDAC1 [2] were 40000 nM and 0.7 ± 0.45 nM, respectively.

For the compound `N=C(N)NCCC[C@@H]1NC(=O)[C@@H](CCCNC(=N)N)NC(=O)[C@H]2CCCN2C(=O)[C@@H](Cc2c[nH]cn2)NC(=O)[C@H](Cc2ccc(O)cc2)NC(=O)[C@H](CCCCCS)NC(=O)[C@H](CCc2ccccc2)NC(=O)[C@@H](CCC(N)=O)NC(=O)[C@H](CC(=O)O)NC1=O` [des3.3.0, SHA-Tyr-dHis-dPro-dArg- Arg-Asp-dGln-C27] (HELM PEPTIDE1{D.[dQ].[O=C([C@H](CCc1ccccc1)N[*:1])[*:2]].[O=C([C@H](CCCCCS)N[*:1])[*:2]].Y.[dH].[dP].[dR].R}$PEPTIDE1,PEPTIDE1,1:R1-9:R2$$$V2.0), the IC50 on HDAC6 [3] was 11.6 nM; against HDAC3 it was 6.4 nM; against HDAC1 [4], 4.2 nM; at HDAC2 [5], 10 to 100 nM; against HDAC8, 244 nM; at HDAC2 [6] it was 9.1 nM.

`C/C=C1\NC(=O)[C@H]2CSSCC/C=C/[C@H](CC(=O)N[C@H](C(C)C)C(=O)N2)OC(=O)[C@H](C(C)C)NC1=O` [Romidepsin]: the IC50 in the test on HDAC6 [1] is […]; on HDAC4, 25 ± 7.3 nM.
